Reference: patent publication US8827946B2 (Shin Nippon Biomedical Laboratories, Ltd., priority 2009, dated 2014)
Like-named read-outs stand apart in the source and are kept apart here.

Experiment: Phase 1 clinical study, pharmacokinetics of granisetron after intravenous and intranasal administration
Format: in vivo, human
Procedure: This was an open-label safety and PK study conducted at a single site in which healthy volunteers, at weekly intervals, were given the reference intravenous dose, followed by three single escalating nasal doses of TRG at weekly intervals.
Subjects received one intravenous dose of Kytril® (10 μg/kg) followed by three escalating single doses of TRG. There was a 7 day washout period between each dose.
The following PK parameters were tested: AUC0-last (ng·h/mL), AUCinf (ng·h/mL), Tmax (hours), Cmax (ng/mL), T1/2 (hours), clearance, and volume of distribution. No efficacy variables were assessed in this safety and PK study.
The PK parameters T1/2, Tmax, Cmax, AUC0-last, and AUCinf were calculated by using noncompartmental analysis. Values for Tmax and Cmax were reported as the observed values. Terminal elimination rate constants (λz) were determined by log-linear regression of the terminal portion of the concentration-time curves (FIG. 8). Values for T1/2 were calculated as (ln 2)/λz, and AUC0-last was determined by the linear trapezoidal method. AUCinf was calculated as the sum of AUC0-last and Clast/λz where Clast is the last measurable concentration. The absolute bioavailability (F) was calculated for each subject by the dose-corrected AUCinf intranasal divided by AUCinf intravenous. Apparent clearance and volume of distribution were also calculated. To determine the relationship between pharmacokinetic parameters (Cmax, AUClast, and AUC0-∞) and dosage, a multiple regression analysis was performed with log-transformed values. For other pharmacokinetic parameters, analysis of variance (ANOVA) using the mixed effect model was performed to compare between groups.

[1] = human, plasma, 10 ug/kg, intravenous 10 μg/kg (Kytril), healthy male volunteers, mean, N=8
[2] = human, plasma, inhaled or intranasal, intranasal 0.5 mg (TRG capsule, single nostril), healthy male volunteers, mean
[3] = human, plasma, inhaled or intranasal, intranasal 1.0 mg (TRG capsule, single nostril), healthy male volunteers, mean
[4] = human, plasma, inhaled or intranasal, intranasal 2.0 mg (TRG capsule, single nostril), healthy male volunteers, mean
[5] = intranasal 0.5 mg (TRG capsule, single nostril), healthy male volunteers, mean
[6] = intranasal 1.0 mg (TRG capsule, single nostril), healthy male volunteers, mean
[7] = intranasal 2.0 mg (TRG capsule, single nostril), healthy male volunteers, mean

Compound: CN1C2CCCC1CC(NC(=O)c1nn(C)c3ccccc13)C2 (stereo not drawn) [Granisetron, endo-N-(9-methyl-9-azabicyclo[3.3.1]non-3-yl)-1-methyl-1H-indazole-3-carboxamide]
- AUC(0-inf) [1]: 0.103 µg·h/mL
- AUC(0-t) [1]: 0.0924 µg·h/mL
- Cmax [1]: 0.0166 µg/mL
- clearance [1]: 158 mL/min
- half-life (human, plasma, 10 ug/kg, intravenous 10 μg/kg (Kytril), healthy male volunteers, mean, N=8, read-out: T1/2 (converted)): 8.52 h
- Vd (human, plasma, 10 ug/kg, intravenous 10 μg/kg (Kytril), healthy male volunteers, mean, N=8, read-out: Vss): 108 L
- AUC(0-inf) [2]: 0.0527 µg·h/mL
- AUC(0-t) [2]: 0.0469 µg·h/mL
- Cmax [2]: 0.00495 µg/mL
- half-life (human, plasma, inhaled or intranasal, intranasal 0.5 mg (TRG capsule, single nostril), healthy male volunteers, mean, read-out: T1/2 (converted)): 8.9 h
- AUC(0-inf) [3]: 0.119 µg·h/mL
- AUC(0-t) [3]: 0.105 µg·h/mL
- Cmax [3]: 0.0133 µg/mL
- half-life (human, plasma, inhaled or intranasal, intranasal 1.0 mg (TRG capsule, single nostril), healthy male volunteers, mean, read-out: T1/2 (converted)): 9.52 h
- AUC(0-inf) [4]: 0.236 µg·h/mL
- AUC(0-t) [4]: 0.21 µg·h/mL
- Cmax [4]: 0.0266 µg/mL
- half-life (human, plasma, inhaled or intranasal, intranasal 2.0 mg (TRG capsule, single nostril), healthy male volunteers, mean, read-out: T1/2 (converted)): 9.29 h
- CL/F [5]: 10.6 L/h
- Vz [5]: 131.4 L
- CL/F [6]: 9.1 L/h
- Vz [6]: 122.6 L
- CL/F [7]: 9.2 L/h
- Vz [7]: 122.0 L
- Tmax (male, human, plasma, inhaled or intranasal, 0.5 mg, intranasal 0.5 mg (TRG capsule, single nostril), healthy male volunteers, mean, read-out: Tmax): 1.34 h
- Tmax (male, human, plasma, inhaled or intranasal, 1 mg, intranasal 1.0 mg (TRG capsule, single nostril), healthy male volunteers, mean, read-out: Tmax): 0.34 h
- Tmax (male, human, plasma, inhaled or intranasal, 2 mg, intranasal 2.0 mg (TRG capsule, single nostril), healthy male volunteers, mean, read-out: Tmax): 0.63 h
- Tmax (male, human, plasma, inhaled or intranasal, 2 mg, intranasal, 0.5, 1.0 and 2.0 mg doses together, read-out: overall mean Tmax): 0.75 h
- half-life (male, human, plasma, inhaled or intranasal, after intranasal administration, all dose levels, read-out: overall mean half-life (converted)): 9.23 h
- Tmax (male, human, plasma, iv, 10 ug/kg, intravenous 10 μg/kg (Kytril), healthy male volunteers, mean, N=8, read-out: Tmax): 0.18 h
- Tmax (male, human, plasma, iv, 10 μg/kg, intravenous rapid infusion 10 μg/kg, all subjects except one, read-out: Tmax): 0.0833 to 0.167 h
